Source: patent US10829481B2, “Benzimidazole derivatives as modulators of ROR-gamma” (Vitae Pharmaceuticals, LLC, priority 2016, dated 2020)

How the values were obtained:
[1] = molecular target: full-length RORγt in Jurkat cells (Homo sapiens (Human), UniProt P51449); test: RORγt 5×RORE Assay in Jurkat Cells (Assay 2); assay type: cell-based; conditions: 5×RORE Nanoluc luciferase reporter
[2] = molecular target: recombinant RORγ Ligand Binding Domain (LBD) protein (Homo sapiens (Human), UniProt P51449); test: Radio-Ligand RORγ Binding Assay (Assay 1); conditions: competition with 25-hydroxy [26,27-3H]-cholesterol, SPA
How it was run: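 His-GST-fused RORγ ligand-binding domain (24 nM solution) competed between compounds and tritiated 25-hydroxycholesterol (8.6 nM solution), read by SPA after brief rt incubations in pH 7.4 HEPES/glycerol/detergent buffer. Four-parameter curve fitting gave IC50 at inflection, converted to Ki using radioligand concentration and KD.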

Sequence of recombinant RORγ Ligand Binding Domain (LBD) protein (P51449 269-508): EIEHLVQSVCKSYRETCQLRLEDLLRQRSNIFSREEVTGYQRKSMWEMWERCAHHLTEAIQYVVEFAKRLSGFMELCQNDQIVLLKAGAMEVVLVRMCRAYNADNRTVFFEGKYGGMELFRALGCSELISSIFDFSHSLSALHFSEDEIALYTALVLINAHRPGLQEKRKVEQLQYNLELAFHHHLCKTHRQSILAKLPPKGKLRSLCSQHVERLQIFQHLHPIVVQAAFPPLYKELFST
Sequence of full-length RORγt in Jurkat cells (P51449 other isoform, or with tags, fused parts or gaps): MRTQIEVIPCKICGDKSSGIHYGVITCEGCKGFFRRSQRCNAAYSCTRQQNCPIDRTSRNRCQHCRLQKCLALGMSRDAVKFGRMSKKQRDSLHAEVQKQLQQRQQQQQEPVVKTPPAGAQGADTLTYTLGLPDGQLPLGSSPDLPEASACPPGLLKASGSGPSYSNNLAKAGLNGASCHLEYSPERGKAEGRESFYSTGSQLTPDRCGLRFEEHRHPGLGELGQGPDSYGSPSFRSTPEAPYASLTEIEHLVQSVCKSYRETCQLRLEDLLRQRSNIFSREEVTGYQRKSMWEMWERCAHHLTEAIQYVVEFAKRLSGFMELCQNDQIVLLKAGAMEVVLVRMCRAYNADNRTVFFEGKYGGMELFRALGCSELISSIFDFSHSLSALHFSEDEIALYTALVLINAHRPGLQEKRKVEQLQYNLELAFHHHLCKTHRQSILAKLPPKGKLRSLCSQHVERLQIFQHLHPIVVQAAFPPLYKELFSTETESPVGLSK

Compound | IC50 [1] | Ki [2]
COC(=O)CS(=O)(=O)N1CCC(CNC(=O)c2ccc3c(c2)nc(C(F)(F)F)n3Cc2cccc3[nH]ncc23)CC1 [I-127, methyl 2-((4-((1-((1H-indazol-4-yl)methyl)-2-(trifluoromethyl)-1H-benzo[d]imidazole-5-carboxamido)methyl)piperidin-1-yl)sulfonyl)acetate] | < 100 nM | < 100 nM
CCS(=O)(=O)c1ccc(CNC(=O)c2ccc3c(c2)nc(C(F)(F)F)n3Cc2cc(OC)cc(OC)c2)nc1 [I-128, 1-(3,5-dimethoxybenzyl)-N-((5-(ethylsulfonyl)pyridin-2-yl)methyl)-2-(trifluoromethyl)-1H-benzo[d]imidazole-5-carboxamide] | > 1000 nM | < 100 nM
CCS(=O)(=O)c1ccc([C@H](CO)NC(=O)c2ccc3c(c2)nc(C(F)(F)F)n3Cc2cccc3c2OC(F)(F)O3)nc1 [I-130.1, (R)-1-((2,2-difluorobenzo[d][1,3]dioxol-4-yl)methyl)-N-(1-(5-(ethylsulfonyl)pyridin-2-yl)-2-hydroxyethyl)-2-(trifluoromethyl)-1H-benzo[d]imidazole-5-carboxamide] | < 100 nM | < 100 nM
CCS(=O)(=O)c1ccc([C@@H](CO)NC(=O)c2ccc3c(c2)nc(C(F)(F)F)n3Cc2cccc3c2OC(F)(F)O3)nc1 [I-130.2, (S)-1-((2,2-difluorobenzo[d][1,3]dioxol-4-yl)methyl)-N-(1-(5-(ethylsulfonyl)pyridin-2-yl)-2-hydroxyethyl)-2-(trifluoromethyl)-1H-benzo[d]imidazole-5-carboxamide] | < 100 nM | < 100 nM
CCS(=O)(=O)c1ccc([C@H](CO)NC(=O)c2ccc3c(c2)nc(C(F)F)n3Cc2cccc3c2OC(F)(F)O3)nc1 [I-131.1, (R)-1-((2,2-difluorobenzo[d][1,3]dioxol-4-yl)methyl)-2-(difluoromethyl)-N-(1-(5-(ethylsulfonyl)pyridin-2-yl)-2-hydroxyethyl)-1H-benzo[d]imidazole-5-carboxamide] | < 100 nM | < 100 nM
CCS(=O)(=O)c1ccc([C@@H](CO)NC(=O)c2ccc3c(c2)nc(C(F)F)n3Cc2cccc3c2OC(F)(F)O3)nc1 [I-131.2, (S)-1-((2,2-difluorobenzo[d][1,3]dioxol-4-yl)methyl)-2-(difluoromethyl)-N-(1-(5-(ethylsulfonyl)pyridin-2-yl)-2-hydroxyethyl)-1H-benzo[d]imidazole-5-carboxamide] | 100 to 1000 nM | < 100 nM
CCS(=O)(=O)c1ccc([C@H](CO)NC(=O)c2ccc3c(c2)nc(C2CCC2)n3Cc2cccc3c2OC(F)(F)O3)nc1 [I-132.1, (R)-2-cyclobutyl-1-((2,2-difluorobenzo[d][1,3]dioxol-4-yl)methyl)-N-(1-(5-(ethylsulfonyl)pyridin-2-yl)-2-hydroxyethyl)-1H-benzo[d]imidazole-5-carboxamide] | < 100 nM | < 100 nM
CCS(=O)(=O)c1ccc([C@@H](CO)NC(=O)c2ccc3c(c2)nc(C2CCC2)n3Cc2cccc3c2OC(F)(F)O3)nc1 [I-132.2, (S)-2-cyclobutyl-1-((2,2-difluorobenzo[d][1,3]dioxol-4-yl)methyl)-N-(1-(5-(ethylsulfonyl)pyridin-2-yl)-2-hydroxyethyl)-1H-benzo[d]imidazole-5-carboxamide] | < 100 nM | < 100 nM
CCS(=O)(=O)c1ccc([C@H](CO)NC(=O)c2ccc3c(c2)nc(C2CC2)n3Cc2cccc3c2OC(F)(F)O3)nc1 [I-133.1, (R)-2-cyclopropyl-1-((2,2-difluorobenzo[d][1,3]dioxol-4-yl)methyl)-N-(1-(5-(ethylsulfonyl)pyridin-2-yl)-2-hydroxyethyl)-1H-benzo[d]imidazole-5-carboxamide] | < 100 nM | < 100 nM
CCS(=O)(=O)c1ccc([C@H](CO)NC(=O)c2ccc3c(c2)nc(C2(F)CC2)n3Cc2cccc3c2OC(F)(F)O3)nc1 [I-134.1, (R)-1-((2,2-difluorobenzo[d][1,3]dioxol-4-yl)methyl)-N-(1-(5-(ethylsulfonyl)pyridin-2-yl)-2-hydroxyethyl)-2-(1-fluorocyclopropyl)-1H-benzo[d]imidazole-5-carboxamide] | < 100 nM | < 100 nM
CCS(=O)(=O)c1ccc([C@@H](CO)NC(=O)c2ccc3c(c2)nc(C2(F)CC2)n3Cc2cccc3c2OC(F)(F)O3)nc1 [I-134.2, (S)-1-((2,2-difluorobenzo[d][1,3]dioxol-4-yl)methyl)-N-(1-(5-(ethylsulfonyl)pyridin-2-yl)-2-hydroxyethyl)-2-(1-fluorocyclopropyl)-1H-benzo[d]imidazole-5-carboxamide] | < 100 nM | < 100 nM
CCS(=O)(=O)c1ccc(CNC(=O)c2ccc3c(c2)nc(C(F)(F)F)n3Cc2cccc(OC)c2F)cc1 [I-136, N-(4-(ethylsulfonyl)benzyl)-1-(2-fluoro-3-methoxybenzyl)-2-(trifluoromethyl)-1H-benzo[d]imidazole-5-carboxamide] | < 100 nM | < 100 nM
CCS(=O)(=O)c1ccc(CNC(=O)c2ccc3c(c2)nc(C(F)(F)F)n3Cc2cccc3cnn(C)c23)cc1 [I-137, N-(4-(ethylsulfonyl)benzyl)-1-((1-methyl-1H-indazol-7-yl)methyl)-2-(trifluoromethyl)-1H-benzo[d]imidazole-5-carboxamide] | < 100 nM | < 100 nM
CCS(=O)(=O)c1ccc(CNC(=O)c2ccc3c(c2)nc(C(F)(F)F)n3Cc2nc(C)cc(C(F)(F)F)n2)cc1 [I-138, N-(4-(ethylsulfonyl)benzyl)-1-((4-methyl-6-(trifluoromethyl)pyrimidin-2-yl)methyl)-2-(trifluoromethyl)-1H-benzo[d]imidazole-5-carboxamide] | 100 to 1000 nM | < 100 nM
CCS(=O)(=O)c1ccc(CNC(=O)c2ccc3c(c2)nc(C(F)(F)F)n3Cc2cccc3cn(C)nc23)cc1 [I-139, N-(4-(ethylsulfonyl)benzyl)-1-((2-methyl-2H-indazol-7-yl)methyl)-2-(trifluoromethyl)-1H-benzo[d]imidazole-5-carboxamide] | < 100 nM | < 100 nM
CCS(=O)(=O)c1ccc(CNC(=O)c2ccc3c(c2)nc(C(F)(F)F)n3Cc2cccc3c2cnn3C)cc1 [I-141, N-(4-(ethylsulfonyl)benzyl)-1-((1-methyl-1H-indazol-4-yl)methyl)-2-(trifluoromethyl)-1H-benzo[d]imidazole-5-carboxamide] | 100 to 1000 nM | > 1000 nM
CCS(=O)(=O)c1ccc(CNC(=O)c2ccc3c(c2)nc(C(F)(F)F)n3Cc2cccc3nn(C)cc23)cc1 [I-143, N-(4-(ethylsulfonyl)benzyl)-1-((2-methyl-2H-indazol-4-yl)methyl)-2-(trifluoromethyl)-1H-benzo[d]imidazole-5-carboxamide] | 100 to 1000 nM | < 100 nM
CCS(=O)(=O)c1ccc(CNC(=O)c2ccc3c(c2)nc(C(F)(F)F)n3Cc2cccc3ocnc23)cc1 [I-147, 1-(benzo[d]oxazol-4-ylmethyl)-N-(4-(ethylsulfonyl)benzyl)-2-(trifluoromethyl)-1H-benzo[d]imidazole-5-carboxamide] | 100 to 1000 nM | < 100 nM
CCS(=O)(=O)c1ccc(CNC(=O)c2ccc3c(c2)nc(C2CC2)n3Cc2cccc3c2OCCO3)cc1 [I-148, 2-cyclopropyl-1-((2,3-dihydrobenzo[b][1,4]dioxin-5-yl)methyl)-N-(4-(ethylsulfonyl)benzyl)-1H-benzo[d]imidazole-5-carboxamide] | > 1000 nM | < 100 nM
CCS(=O)(=O)c1ccc(CNC(=O)c2ccc3c(c2)nc(C2CC2)n3[C@H](C)c2cccc3c2OC(F)(F)O3)cc1 [I-149, (R)-2-cyclopropyl-1-(1-(2,2-difluorobenzo[d][1,3]dioxol-4-yl)ethyl)-N-(4-(ethylsulfonyl)benzyl)-1H-benzo[d]imidazole-5-carboxamide] | < 100 nM | < 100 nM
CCS(=O)(=O)c1ccc(CNC(=O)c2ccc3c(c2)nc(C)n3Cc2ccccc2)cc1 [I-150, 1-benzyl-N-(4-(ethylsulfonyl)benzyl)-2-methyl-1H-benzo[d]imidazole-5-carboxamide] | > 1000 nM | 100 to 1000 nM
CCS(=O)(=O)c1ccc(CNC(=O)c2ccc3c(c2)nc(C(F)(F)F)n3Cc2cccc3nonc23)cc1 [I-151, 1-(benzo[c][1,2,5]oxadiazol-4-ylmethyl)-N-(4-(ethylsulfonyl)benzyl)-2-(trifluoromethyl)-1H-benzo[d]imidazole-5-carboxamide] | < 100 nM | < 100 nM
CCS(=O)(=O)c1ccc(CNC(=O)c2ccc3c(c2)nc(C(F)(F)F)n3Cc2cccc3ncoc23)cc1 [I-152, 1-(benzo[d]oxazol-7-ylmethyl)-N-(4-(ethylsulfonyl)benzyl)-2-(trifluoromethyl)-1H-benzo[d]imidazole-5-carboxamide] | < 100 nM | < 100 nM
CCS(=O)(=O)c1ccc(CNC(=O)c2ccc3c(c2)nc(C2CC2)n3Cc2cc(O)cc(OC(F)(F)F)c2)cc1 [I-153, 2-cyclopropyl-N-(4-(ethylsulfonyl)benzyl)-1-(3-hydroxy-5-(trifluoromethoxy)benzyl)-1H-benzo[d]imidazole-5-carboxamide] | < 100 nM | < 100 nM
CCS(=O)(=O)c1ccc(CNC(=O)c2ccc3c(c2)nc(C2CC2)n3Cc2cccc(O)c2O)cc1 [I-154, 2-cyclopropyl-1-(2,3-dihydroxybenzyl)-N-(4-(ethylsulfonyl)benzyl)-1H-benzo[d]imidazole-5-carboxamide] | > 1000 nM | < 100 nM
CCS(=O)(=O)c1ccc(CNC(=O)c2ccc3c(c2)nc(C(F)(F)F)n3CC2CCN(c3ncc(F)cn3)CC2)cc1 [I-158, N-(4-(ethylsulfonyl)benzyl)-1-((1-(5-fluoropyrimidin-2-yl)piperidin-4-yl)methyl)-2-(trifluoromethyl)-1H-benzo[d]imidazole-5-carboxamide] | > 1000 nM | < 100 nM
